Measurements reported in patent US20050266515A1, “Glyceraldehyde 3-phosphate dehydrogenase-S (GAPDHS), a glycolytic anzyme expressed only in male germ cells, is a target for male contraception” (The University of North Carolina at Chapel Hill, priority 2002, published 2005).
Like-named read-outs stand apart in the source and are kept apart here. Each block holds one molecule with its values, some of them ahead of it.

Legend:
Assay type in all cases: biochemical
[1] = biological target: T1, truncated form of human GAPDHS (Mus musculus, UniProt Q64467); assay: Inhibition of dehydrogenase activity of recombinant truncated GAPDHS (NADH accumulation at 340 nm);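 further: recombinant enzyme (1 µg) in glycine–phosphate–EDTA buffer pH 8.9, inhibitors tested from 1 µM to 3 mM, activity relative to DMSO-only controls taken as 100%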
T1 construct: tGapdhs, amino acids 106-438; made in house; host or cells: E. coli K-12 strain DS112 (gapA-deficient)

[2] = biological target: T2, recombinant human GAPDH (Mus musculus, UniProt P16858); assay: Inhibition of dehydrogenase activity of recombinant somatic GAPDH (NADH accumulation at 340 nm); conditions: 1 hour preincubation at 4° C., 0.5 mM NAD, 0.5 mM glyceraldehyde-3-phosphate
T2 construct: made in house; host or cells: E. coli K-12 strain DS112 (gapA-deficient)
Excerpt: In subsequent studies to test inhibitors identified in computer docking studies, recombinant mouse Gapdh and the truncated form of Gapdhs (tGapdhs, amino acids 106-438) were expressed in DS112 gapA-deficient E. coli strain K-12 (available from the Yale University E. coli Genetics Stock Center, New Haven, Conn., United States of America). The truncated Gapdhs lacks the proline-rich N-terminus, but contains all the amino acids required for enzyme activity. The recombinant proteins were purified and activities were determined with a standard enzyme assay (Schmalhausen et al., 1997). Using this assay, the dehydrogenase activity of Gapdh and tGapdhs was monitored at 340 nm by measuring the accumulation of NADH.
The reaction mixture (200 μl) contained 50 mM glycine, 50 mM potassium phosphate, 5 mM EDTA (pH 8.9), 1 μg of recombinant enzyme (Gapdh or tGapdhs), 0.5 mM NAD, and 0.5 mM glyceraldehyde-3-phosphate. Activities of Gapdh and tGapdh were compared in the presence of various concentrations of inhibitors. Compounds identified as potential inhibitors in modeling studies as described herein were obtained from Ryan Scientific (Mt. Pleasant, S.C., United States of America). Stocks for each compound were prepared by dissolving 5 mg in 50 μl of DMSO. These stocks were divided into 10 μl aliquots and frozen at −20° C.
To monitor inhibition, each compound (1 μM to 3 mM) was added to the above reaction mixture (without NAD and glyceraldehyde-3-phosphate) and incubated for 1 hour at 4° C. After the 1 hour incubation period, NAD and glyceraldehyde-3-phosphate were added to start the reaction. In each assay, controls containing equal amounts of DMSO were included to determine values for 100% activity. The IC50 for each compound was calculated as the concentration required to reduce dehydrogenase activity to 50% of the activity of control samples.

[3] = test system: truncated form of human GAPDHS; assay: Inhibition of dehydrogenase activity of recombinant truncated GAPDHS (NADH accumulation at 340 nm); conditions: comparison of IC50 values of Tables 7, 9 and 11;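 further: recombinant enzyme (1 µg) in glycine–phosphate–EDTA buffer pH 8.9, inhibitors tested from 1 µM to 3 mM, activity relative to DMSO-only controls taken as 100%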
[4] = biological target: T3, truncated Gapdhs (tGapdhs; amino acids 106-438 of mouse Gapdhs) (Mus musculus, UniProt Q64467); assay: Inhibition of recombinant tGapdhs by adenine nucleotides (NAD reduction at 340 nm, 96-well format); conditions: for inhibition of tGapdhs: recombinant enzyme, result in words
T3 construct: containing amino acids 106-438 of mouse Gapdhs; GST (cleaved yes); made in house

[5] = biological target: T4, Recombinant mouse Gapdh (Mus musculus, UniProt P16858); assay: Inhibition of recombinant Gapdh by adenine nucleotides (NAD reduction at 340 nm, 96-well format); conditions: for inhibition of Gapdhs (the other recombinant enzyme beside tGapdhs): result in words
T4 construct: GST (cleaved yes); made in house

[6] = Table 9, 1 hour preincubation at 4° C., 0.5 mM NAD, 0.5 mM glyceraldehyde-3-phosphate, read-out: IC50 GAPDHS
[7] = competitive inhibitors of NAD cofactor binding, read-out: calculated Ki for tGapdhs
[8] = competitive inhibitors of NAD cofactor binding, read-out: calculated Ki for Gapdh
[9] = Table 7, 1 hour preincubation at 4° C., 0.5 mM NAD, 0.5 mM glyceraldehyde-3-phosphate, read-out: IC50 GAPDHS
[10] = Table 11, 1 hour preincubation at 4° C., 0.5 mM NAD, 0.5 mM glyceraldehyde-3-phosphate, read-out: IC50 GAPDHS

T2 sequence (P16858 whole entry): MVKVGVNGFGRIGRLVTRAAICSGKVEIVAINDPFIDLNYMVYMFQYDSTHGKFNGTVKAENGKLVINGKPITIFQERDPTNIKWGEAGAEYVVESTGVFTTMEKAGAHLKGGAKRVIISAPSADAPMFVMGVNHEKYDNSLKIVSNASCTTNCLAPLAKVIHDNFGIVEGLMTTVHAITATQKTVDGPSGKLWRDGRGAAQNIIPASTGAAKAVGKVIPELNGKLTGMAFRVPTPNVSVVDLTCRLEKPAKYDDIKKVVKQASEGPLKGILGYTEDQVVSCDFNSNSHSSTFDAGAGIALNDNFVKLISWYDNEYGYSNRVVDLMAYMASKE
T4 sequence (P16858 whole entry): as above
T3 sequence (Q64467 108-440): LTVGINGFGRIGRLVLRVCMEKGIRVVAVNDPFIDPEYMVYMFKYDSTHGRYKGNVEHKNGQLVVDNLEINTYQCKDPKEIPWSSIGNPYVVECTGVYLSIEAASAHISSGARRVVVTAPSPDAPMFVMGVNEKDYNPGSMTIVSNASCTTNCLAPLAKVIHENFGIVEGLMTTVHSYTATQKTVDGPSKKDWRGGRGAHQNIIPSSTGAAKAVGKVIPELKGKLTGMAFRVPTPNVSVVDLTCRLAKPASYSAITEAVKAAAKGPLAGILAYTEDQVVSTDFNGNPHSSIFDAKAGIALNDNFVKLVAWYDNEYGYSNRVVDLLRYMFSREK
T1 sequence (Q64467 108-440): as above

Molecule: 3-(1H-Imidazolo-4-yl)-2-[3-(4-sulfamoyl-benzyl)-thioureido]-propionic acid [LT_00729760]
- IC50 [1, 6]: 2000 µM

Molecule: 4-(1-Benzyl-IH-indol-3y1)-3,4-dihydro-benzo[4,5]imidazo[1,2-a][1,3,5]triazin-2-ylamine [Compound T0501_7933]
- IC50 ([2]; Table 9): > 500 µM
- IC50 [1, 6]: 10 to 25 µM
- selective inhibition: Gapdhs compared to Gapdh [3]: greater inhibition of Gapdhs than Gapdh

Molecule: 4-Amino-N-(4-methoxy-phenyl)-3-nitro-benzenesulfonamide-cyclohexyl-urea [Compound T0506_9350]
- IC50 ([2]; Table 9): > 1000 µM

Molecule: Nc1ncnc2c1ncn2[C@@H]1O[C@H](COP(=O)(O)OP(=O)(O)O)[C@@H](O)[C@H]1O [ADP]
- Ki [4, 7]: 3970 µM
- inhibition of tGapdhs [4]: dose-dependent inhibition
- Ki [5, 8]: 1790 µM
- inhibition of Gapdhs (the other recombinant enzyme beside tGapdhs) [5]: dose-dependent inhibition

Molecule: Nc1ncnc2c1ncn2[C@@H]1O[C@H](COP(=O)(O)O)[C@@H](O)[C@H]1O [AMP]
- Ki [4, 7]: 3130 µM
- inhibition of tGapdhs [4]: dose-dependent inhibition
- Ki [5, 8]: 1610 µM
- inhibition of Gapdhs (the other recombinant enzyme beside tGapdhs) [5]: dose-dependent inhibition

Molecule: OCc1nc2ccccc2[nH]1 [Compound T0504_1251, (1H-Benzoimidazol-2-yl)-methanol]
- IC50 [1, 9]: > 3000 µM

Molecule: C=Cn1cncc1C(=O)C(F)(F)F [Compound T0507_5482, 2,2,2-Trifluoro-1-(3vinyl-3H-imidazol-4-yl)-ethanone]
- IC50 ([2]; Table 7): > 1000 µM
- IC50 [1, 9]: > 1000 µM

Molecule: O=[N+]([O-])c1ccc2oc3ccccc3c2c1 [Compound T0515_4928, 2-Nitro-dibenzofuran]
- IC50 [1, 10]: 100 µM
- selective inhibition: Gapdhs compared to Gapdh [3]: greater inhibition of Gapdhs than Gapdh

Molecule: C=CC(=O)NCNC(=O)C=C [LT_00050115, N-(Acryloylamino-methyl)-acrylamide]
- IC50 ([2]; Table 11): > 1000 µM
- IC50 [1]: > 1000 µM

Molecule: CN(C)c1ccc(C(CC(=O)c2c(O)c3ccccc3n(C)c2=O)NCc2ccncc2)cc1 (stereo not drawn) [LT_00232244, 3-{3-(4-Dimethylamino-phenyl)-3-[(pyridine-4-ylmethyl)-amino]-propionyl}-4-hydroxy-1-methyl-1H-quinolin-2-one]
- IC50 ([2]; Table 7): 350 µM
- IC50 [1, 9]: > 1000 µM

Molecule: CC1=NN(C(N)=N[N+](=O)[O-])C(=O)C1 [LT_00249157, 3-methyl-5-oxo-pyrazole-1-nitro-carboxamidine]
- IC50 [1, 9]: 100 µM
- selective inhibition: Gapdhs compared to Gapdh [3]: greater inhibition of Gapdhs than Gapdh

Molecule: O=C(CN1C(=O)c2ccccc2C1=O)Nc1cc(C(=O)O)cc(C(=O)O)c1 [LT_00379844, 5-[2-(1,3-Dioxo-1,3-dihydro-isoindol-2-yl)-acetylamino]-isophthalic acid]
- IC50 [1, 6]: > 1000 µM

Molecule: CC(CC(=O)Nc1ccc(Cl)c(Cl)c1)=NNC(=O)c1cc2ccccc2cc1O [LT_00587256, N-(3,4-Dichloro-phenyl)-3-[(3-hydroxy-naphthalene-2-carbonyl)-hyrazono]-butyramide]
- IC50 [1, 6]: 5000 µM

Molecule: O=c1ccn([C@@H]2O[C@H](COP(=O)(O)OP(=O)(O)OP(=O)(O)O)[C@@H](O)[C@H]2O)c(=O)[nH]1 [UTP]
- inhibition of tGapdhs [4]: did not inhibit
- inhibition of Gapdhs (the other recombinant enzyme beside tGapdhs) [5]: did not inhibit

Molecule: Nc1ncnc2c1ncn2[C@@H]1O[C@@H]2COP(=O)(O)O[C@H]2[C@H]1O [cAMP, cyclic AMP]
- Ki [4]: 3330 µM
- inhibition of tGapdhs [4]: dose-dependent inhibition
- Ki [5]: 1500 µM
- inhibition of Gapdhs (the other recombinant enzyme beside tGapdhs) [5]: dose-dependent inhibition

The remaining lines, values ahead:

- Ki [4, 7]: 6480 µM
- Ki [5, 8]: 1270 µM
- inhibition of Gapdhs (the other recombinant enzyme beside tGapdhs) [5]: dose-dependent inhibition
Molecule: Nc1ncnc2c1ncn2[C@@H]1O[C@H](COP(=O)(O)OP(=O)(O)OP(=O)(O)O)[C@@H](O)[C@H]1O [ATP, adenosine triphosphate]

- IC50 ([2]; Table 7): 100 µM
- IC50 [1, 9]: 500 µM
Molecule: Clc1ccc(N=c2ssnc2Cl)c(Cl)c1 [Compound 11K_064, 2,4-dichloro-N-(4chloro-5H-1,2,3-dithiazol-5-yliden)aniline]

- IC50 ([2]; Table 7): > 1000 µM
- IC50 [1, 9]: 100 µM
- selective inhibition: Gapdhs compared to Gapdh [3]: greater inhibition of Gapdhs than Gapdh
Molecule: Cc1ccc(S(=O)(=O)c2c(N)n(CC(O)c3ccc([N+](=O)[O-])cc3)c3nc4ccccc4nc23)cc1 (stereo not drawn) [Compound T0501_7749, 2-[2-Amino-3-(toluene-4-sulfonyl)-pyrrolo[2,3-b]quinoxalin-1-yl]-1-(4-nitro-phenyl)-ethanol]

- IC50 [1, 6]: 1750 µM
Molecule: O=C(NNc1ccc(S(=O)(=O)Nc2ccccc2)cc1[N+](=O)[O-])Nc1cccc(C(F)(F)F)c1 [Compound T0506_1274, 2-[4-(anilinosulfonyl)-2-nitrophenyl]-N-[3-(trifluoromethyl)phenyl]hydrazinecarboxamide]

- IC50 ([2]; Table 7): > 1000 µM
- IC50 [1, 9]: 500 µM
- selective inhibition: Gapdhs compared to Gapdh [3]: greater inhibition of Gapdhs than Gapdh
Molecule: O=C(COC(=O)CCc1c[nH]c2ccccc12)Nc1ccc(S(=O)(=O)N2CCOCC2)cc1 [Compound T0511_4909, 3-(1H-Indol-3-yl)-propionic acid [4-(morpholine-4-sulfonyl)-phenylcaramoyl]-methyl ester]

- IC50 ([2]; Table 11): > 1000 µM
- IC50 [1, 10]: > 1000 µM
Molecule: CNc1cc([N+](=O)[O-])ccc1OC [Compound T0512_4753, (2-Methoxy-5-nitro-phenyl)-methyl-amine]

- IC50 ([2]; Table 9): > 1000 µM
- IC50 [1, 6]: > 1000 µM
Molecule: CCOC(=O)Cc1nnc2c(Nc3ccc(OC)cc3)nc3nonc3n12 [LT00105955, [5-(4-Methoxy-phenylamino)-2-oxa-1,3,4,6,7,8a-hexaaza-as-indacen-8-yl]-acetic acid ethyl ester]

- IC50 [1, 6]: 2000 µM
Molecule: Nc1nonc1-c1nc2ccccc2n1CC(=O)N/N=C\c1cc2c(cc1[N+](=O)[O-])OCO2 [LT_00237350, [2-(4-Aminofurazan-3-yl)-benzoimidazol-1-yl]-acetic acid [1-(6-nitro-benzo[1,3]dioxol-5-yl)-meth-(Z)ylidene]-hydrazide]

- IC50 ([2]; Table 9): 150 µM
- IC50 [1, 6]: 150 µM
Molecule: COc1cc(C=NNC(=O)Cn2cnc3c(=O)n(C)c(=O)n(C)c32)cc([N+](=O)[O-])c1O [LT_00444480, (1,3-Dimethyl-2,6-dioxo-1,2,3,6-tetrahydro-purin-9-yl)-acetic acid (4-hydroxy-3-methoxy-5-nitro-benzylidene)-hydrazide]

- IC50 GAPDHS ([1]; Table 9, 1 hour preincubation at 4° C., 0.5 mM NAD, 0.5 mM glyceraldehyde-3-phosphate): not soluble
Molecule: COc1cc(C=NNc2ccc([N+](=O)[O-])cc2[N+](=O)[O-])ccc1OCC(=O)Nc1ccc(C)c(C)c1 [LT_01178124, N-(3,4-Dimethyl-phenyl)-2-{4-[(2,4-dinitro-phenyl)-hydrazonomethyl]-2-methoxy}-acetamide]

- inhibition of tGapdhs [4]: did not inhibit
- inhibition of Gapdhs (the other recombinant enzyme beside tGapdhs) [5]: did not inhibit
Molecule: Nc1ncnc2c1ncn2[C@@H]1O[C@H](CO)[C@@H](O)[C@H]1O [adenosine]
